Assay results as given in US20040219622A1, “Phosphine-containing formulations for chemiluminescent luciferase assays” (priority 2001, published 2004).

Experiments:
Type in all cases: biochemical
firefly luciferase [1] = target: T1, firefly luciferase (Photinus pyralis, UniProt P08659); test: Firefly luciferase reaction with additives TCEP, CoA, DTT alone or combined (Example 3); settings: CoA 0.5 mM, DTT 5 mM, light output then rapidly decreased
Method: A common firefly luciferase reaction mix was prepared by combining stock solutions of Tris/Mg buffer, D-luciferin, and ATP. A 600 μl aliquot of this mix consisted of 480 μl of 0.1 M Tris, 10 mM MgCl2, pH 8.0, 85 μl of 10 mM D-luciferin in 0.1 M Tris, pH 8.0, and 17 μl of 50 mM ATP (1889485) in 0.1 M Tris, pH 8.0. Separate aliquots of the reaction mixture were then supplemented with various combinations of additives selected from a 0.5 M TCEP solution, a stock solution of CoA (5 mM CoA in 0.1 M Tris, pH 8.0), or a stock solution of DTT (50 mM DTT in 0.1 M Tris, pH 8.0) and then brought to a final volume of 1 ml with 0.1 M Tris, pH 8.0. In such fashion, the following solutions were obtained: a solution with no additives (None), TCEP (T), TCEP plus CoA (TC), TCEP plus DTT (TD), TCEP plus CoA plus DTT (TCD), CoA (C), CoA plus DTT (CD), and DTT (D or DTT). Where used, the final concentrations of TCEP, CoA, and DTT were 50, 0.5, and 5 mM, respectively. […]
Firefly luciferase was diluted from a stock solution (2 μl of 14.7 mg/ml) with 0.1 M Tris, pH 8.0, containing 2 mg/ml bovine serum albumin. […] The plate was immediately placed into an Orion Luminometer, and light output from the plate wells was measured with sequential plate reading cycles over a one hour time frame, each cycle allowing the wells of the plate to be read with a time interval of approximately 140 seconds.

firefly luciferase [2] = target: T1, firefly luciferase; test: Firefly luciferase reaction with TCEP concentration series (Example 1); settings: for light output as % of the original signal: 96 mM TCEP
Method: A common firefly luciferase reaction mix was prepared by combining stock solutions of Tris/Mg buffer, D-luciferin, and ATP. A 900 μl aliquot of this mix consisted of 720 μl of 0.1 M Tris, 10 mM MgCl2, pH 8.0, 150 μl of 10 mM D-luciferin in 0.1 M Tris, pH 8.0, and 30 μl of 50 mM ATP in 0.1 M Tris, pH 8.0. A series of buffered TCEP preparations were prepared from a neutral pH, 0.5 M TCEP solution (Pierce Chemical Company Product No. 77720) by dilutions with 0.1 M Tris, pH 8.0, as necessary for a TCEP concentration series of 300, 150, 75, 37.5, 18.75, 9.38, 4.69, and 0 mM TCEP. 450 μl of each TCEP concentration were then added separately to 900 μl aliquots of the previously prepared mixture, followed by a final addition of 50 μl of 0.1 M Tris, pH 8.0, to each solution for a final volume of 1.4 ml. The final TCEP concentrations were, therefore, approximately 96, 48, 24, 12, 6, 3, 1.5, and 0 mM and the final Mg, luciferin, and ATP concentrations were 5.14, 1.07, and 1.07 mM, respectively.
Firefly luciferase was diluted from a stock solution (2 μl of 14.7 mg/ml) with 0.1 M Tris, pH 8.0, containing 2 mg/ml bovine serum albumin. 10 μl aliquots containing 181 pg of enzyme were aliquoted into the wells of an opaque white 96-well microplate, after which 125 μl of the reaction mixtures with varying TCEP concentrations were added. The plate was immediately placed into an Orion Luminometer (Berthold Detection Systems), and light output from the plate wells was measured for 15 sequential plate reading cycles, each cycle allowing the wells of the plate to be read with a time interval of approximately 2 minutes.

firefly luciferase [3] = target: T1, firefly luciferase; test: Firefly luciferase reaction with TCEP series plus 5 mM DTT (Example 2)
Method: In this experiment, final TCEP concentration was varied from 0-96 mM in the reaction mixture, with the reaction mixture also containing a final concentration of DTT of 5 mM. The conditions for this experiment were identical to that shown in Example 1, but with substitution of the final addition of 50 μl of 0.1 M Tris, pH 8.0, to each solution with a final addition of 50 μl of 50 mM DTT stock solution prepared in 0.1 M Tris, pH 8.0. This experiment was also conducted simultaneously and in the same microwell plate as the experiment of Example 1.

firefly luciferase [4] = target: T1, firefly luciferase; test: TCEP-mediated firefly luciferase reaction with DTT series (Example 5); settings: 33.5 mM TCEP; for signal decrease from first reading cycle to 11 minutes 34 seconds later: no added DTT
Method: A common solution was prepared by combining stock solutions of Tris/Mg buffer, D-luciferin, TCEP, and ATP. This solution was prepared by combining 12 ml of 0.1 M Tris, 10 mM MgCl2, pH 8.0, 187.5 μl of 10 mM D-luciferin in 0.1 M Tris, pH 8.0, […] 0.5 M TCEP, and 30 μl of an ATP stock solution (50 mM ATP in 0.1 M Tris, pH 8.0) and 1.02 ml of 0.1 M Tris, pH 8.0. A 150 μl aliquot of this solution was added to 100 μl of 50 mM DTT stock solution (50 mM DTT in 0.1 M Tris, pH 8.0) for a final DTT concentration of 20 mM, and another 1.35 ml aliquot of the solution received 0.9 ml 0.1 M Tris, pH 8.0. The 20 mM DTT reaction solution was further diluted with the second aliquot to give a final DTT concentration series of […], and 0 mM DTT. In this series of reaction mixtures with varying concentrations of DTT, the final luciferin, magnesium, and TCEP concentrations were 75.5 μM luciferin, 4.8 mM magnesium, and 33.5 mM TCEP and 238 μM ATP. Other reaction mixtures with varying DTT concentrations were also prepared in like fashion, but with a final ATP concentration held constant at either 59.5, 29.75 or 14.875 μM, which was achieved by further dilution of the ATP solution with 0.1 M Tris, pH 8.
Firefly luciferase was diluted from a stock solution (2 μl of 14.7 mg/ml) with 0.1 M Tris, pH 8.0, containing 2 mg/ml bovine serum albumin. 10 μl aliquots containing 181 pg of enzyme were aliquoted into the wells of an opaque white 96-well microplate, after which 100 μl of the reaction mixtures with varying DTT concentrations were added. The plate was immediately placed into an Orion Luminometer, and light output from the wells was measured with sequential plate reading cycles, each cycle allowing the wells of the plate to be read with a time interval of approximately 2.25 minutes.
FIGS. 10 and 11 illustrate the results of this experiment. FIG. 10 illustrates the results obtained where the final ATP concentration of the reaction mixture was 238 μM, and FIG. 11 illustrates the results obtained where the final ATP concentration of the reaction mixture was 30 μM. Both graphs relate the observed RLU at each reading cycle expressed as a relative percentage of the signal obtained with the well receiving no DTT supplementation at the first reading cycle, with this signal being assigned 100%.

Renilla luciferase = target: T2, Renilla luciferase (Renilla reniformis, UniProt P27652); test: Renilla luciferase assay with or without TCEP (Example 6); settings: 33.3 μl of 0.5 M TCEP added to 466.7 μl coelenterazine assay mixture
T2 construct: purchased Chemicon 4400
T2 sequence (P27652 1-311): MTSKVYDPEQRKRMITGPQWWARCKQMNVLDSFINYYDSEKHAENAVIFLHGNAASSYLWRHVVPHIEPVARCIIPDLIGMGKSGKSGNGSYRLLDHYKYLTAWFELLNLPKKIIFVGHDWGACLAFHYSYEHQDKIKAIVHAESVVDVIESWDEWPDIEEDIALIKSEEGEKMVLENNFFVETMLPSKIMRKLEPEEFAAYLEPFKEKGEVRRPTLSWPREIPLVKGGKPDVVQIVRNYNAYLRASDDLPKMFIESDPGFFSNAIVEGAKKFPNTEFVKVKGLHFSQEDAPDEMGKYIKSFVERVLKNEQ
Method: In order to ascertain whether or not TCEP would interfere with a Renilla assay, an experiment was conducted utilizing a Renilla assay mixture, with or without TCEP supplementation. A Renilla assay mixture was prepared by combining 480 μl of 0.1 M Tris, 10 mM MgCl2, 1 mM EDTA, pH 8.0, with 437.7 μl of 0.1 M Tris, pH 8.0, and 16.7 μl of a coelenterazine stock solution (59 μM coelenterazine in denatured ethanol prepared from Molecular Probes Catalog number C-6777). This solution was split into 2 aliquots of 466.7 μl, and one aliquot received 33.3 μl of 0.5 M TCEP and the other aliquot received 33.3 μl 0.1 M Tris, pH 8.0.
Renilla luciferase purchased from Chemicon (Catalog number 4400) was diluted with 1 ml phosphate-buffered saline (10 mM sodium phosphate, 150 mM NaCl, pH 7.2) and stored frozen at −80° C. in 10 μl aliquots, each aliquot containing 100 ng enzyme. An aliquot was removed and diluted with 0.1 M Tris, pH 8.0, for a concentration series of 166, 55, 18.5, and 0 pg/10 μl. 10 μl of each enzyme concentration were pipetted in duplicate to the wells of a white opaque 96-well microplate, and 100 μl of either of the TCEP containing solution or the solution without TCEP was pipetted into the wells to initiate the reaction. The plate was immediately placed into an Orion Luminometer, and light output from the wells was measured with sequential plate reading cycles.

firefly luciferase [5] = target: T1, firefly luciferase; test: ATP assay with TCEP in firefly luciferin-luciferase reaction (Example 4); settings: 5 mM DTT; 33.3 mM TCEP; 0-500 μM ATP
Method: A common solution was prepared by combining stock solutions of Tris/Mg buffer, D-luciferin, and TCEP. A 2.25 ml aliquot of this solution contained 1.2 ml of 0.1 M Tris, 10 mM MgCl2, pH 8.0, 18.75 μl of 10 mM D-luciferin in 0.1 M Tris, pH 8.0, 165 μl of 0.5 M TCEP, with the remaining volume being 0.1 M Tris, pH 8.0. 0.5 ml of this mixture was removed and to it was added 11 μl of an ATP stock solution (50 mM ATP in 0.1 M Tris, pH 8.0) and 39 μl of 0.1 M Tris, pH 8.0; the remaining 1.75 ml of mixture received 175 μl of 0.1 M Tris, pH 8.0. The ATP-containing aliquot was then serially diluted with the non-ATP-containing mixture to yield a final ATP concentration series of 500, 250, 125, 62.5, 31.25, 15.625, and 0 μM. The non-ATP-containing mixture served as the control for zero ATP concentration. In this series of reaction mixtures with varying concentrations of ATP, the final luciferin, magnesium, and TCEP concentrations were 75.8 μM luciferin, 4.8 mM magnesium, and 33.3 mM TCEP. […]
Firefly luciferase was diluted from a stock solution (2 μl of 14.7 mg/ml) with 0.1 M Tris, pH 8.0 containing 2 mg/ml bovine serum albumin. […] The plate was immediately placed into an Orion Luminometer and light output from the wells was measured with sequential plate reading cycles, each cycle allowing the wells of the plate to be read with a time interval of approximately 2.25 minutes. […]

T1 sequence (P08659 whole entry): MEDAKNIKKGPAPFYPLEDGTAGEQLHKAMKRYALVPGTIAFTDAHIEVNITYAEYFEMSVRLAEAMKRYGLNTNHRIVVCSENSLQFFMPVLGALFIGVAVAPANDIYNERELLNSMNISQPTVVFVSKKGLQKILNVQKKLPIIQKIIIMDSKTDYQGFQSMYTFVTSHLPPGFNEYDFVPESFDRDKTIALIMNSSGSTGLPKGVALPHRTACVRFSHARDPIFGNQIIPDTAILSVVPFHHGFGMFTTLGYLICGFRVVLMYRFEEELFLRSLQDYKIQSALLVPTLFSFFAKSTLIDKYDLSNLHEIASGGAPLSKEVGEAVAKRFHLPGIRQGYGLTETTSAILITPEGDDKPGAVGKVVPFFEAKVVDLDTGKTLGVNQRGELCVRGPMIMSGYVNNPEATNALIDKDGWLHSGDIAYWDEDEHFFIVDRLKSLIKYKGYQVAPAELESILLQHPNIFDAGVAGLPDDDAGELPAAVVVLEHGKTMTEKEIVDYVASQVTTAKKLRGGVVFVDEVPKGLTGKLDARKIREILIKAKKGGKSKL

CC(C)(COP(=O)(O)OP(=O)(O)OC[C@H]1O[C@@H](n2cnc3c(N)ncnc32)[C@H](O)[C@@H]1OP(=O)(O)O)[C@@H](O)C(=O)NCCC(=O)NCCS [CoA, Coenzyme A]
initial light output compared to the no addition control (firefly luciferase [1]): increased

O=C(O)CCP(CCC(=O)O)CCC(=O)O [TCEP, Tris(2-carboxyethyl) phosphine]
light output as % of the original signal (firefly luciferase [2]; fourth reading cycle): 49%
light output as % of the original signal (firefly luciferase [2]; last reading cycle): 32%
initially observed light output compared to the control reaction (no TCEP) (firefly luciferase [2]; TCEP 1.5, 3 and 6 mM): significantly higher
originally observed signal retained at the last reading cycle (firefly luciferase [2]; TCEP 1.5-96 mM, 15th reading cycle, about 2 min per cycle, 181 pg enzyme, control lost >90%): 32 to 78%
RLU at the fifteenth reading cycle compared to control with DTT but without TCEP (firefly luciferase [3]; 1.5-24 mM TCEP + 5 mM DTT): greater RLU
initial RLU compared to the control reaction (DTT without TCEP) (firefly luciferase [3]; 1.5 or 3 mM TCEP, 5 mM DTT): greater
retention of originally observed light output at last reading cycle compared to control (firefly luciferase [3]; all TCEP concentrations (1.5-96 mM), 5 mM DTT): greater retention
signal decrease from first reading cycle to 11 minutes 34 seconds later (firefly luciferase [4]; 30 μM ATP): about 6%
signal decrease from first reading cycle to 11 minutes 34 seconds later (firefly luciferase [4]; 250 μM ATP): about 6%
reduction of background (no added enzyme) compared to absence of TCEP (Renilla luciferase): 50%

O[C@H](CS)[C@H](O)CS (racemic) [DTT, dithiothreitol]
initial light output compared to the no addition control (firefly luciferase [1]): increased
RLUs on inclusion of DTT in the TCEP reaction mixture (firefly luciferase [5]): elevated
increase of initial RLU during the first cycle vs no DTT (firefly luciferase [4]; 10 mM DTT, 30 μM ATP): about 8%
increase of initial RLU during the first cycle vs no DTT (firefly luciferase [4]; 20 mM DTT, 238 μM ATP): about 34%
less light output after 11.5 minutes compared to the initial reading (firefly luciferase [4]; 20 mM DTT, 250 μM ATP): 8.5%
